{"source": "patent US20260108496A1", "about": "“METHODS FOR REPROGRAMING EXHAUSTED T CELLS AND BOOSTING IMMUNE CHECKPOINT BLOCKADE THERAPY FOR CANCER” (Ohio State Innovation Foundation, priority 2022, published 2026)", "key": {"human CD8+ T cells [1]": {"system": "human CD8+ T cells", "assay": "RNA-sequencing of human CD8+ T cells", "format": "cell-based", "description": "RNA was isolated using PicoPure™ RNA Isolation Kit (Applied Biosystems) from frozen cell pellets of human CD8+ T cells that were FACS-purified from days 0 (naïve), 7, and 28. Following the kit protocol. Partek Flow was used for RNA-seq analysis. In brief, pre-alignment QC/QA analysis was performed on the FASTQ files, followed by read alignment on human whole genome hg38 using STAR. The aligned reads were quantified to the hg38 RefSeq Transcripts 98 using the Quantify to annotation model on Partek and gene counts were filtered (exclude features where maximum <50.0). Filtered gene counts were normalized using median ratio for DESeq2 analysis to measure differential gene expression among different populations of CD8+ T cells. Differentially expressed genes (DEGs) were identified for genes showing fold change ≥2 and p-value 0.05."}, "human CD8+ T cells [2]": {"system": "human CD8+ T cells", "assay": "whole-genome bisulfite sequencing of human CD8+ T cells", "format": "cell-based", "description": "Human CD8+ T cells were sorted on days 0 (naïve), 7, and 28, and genomic DNA was extracted and bisulfite-treated to convert unmethylated cytosine to uracil residues using the EZ DNA Methylation-Direct Kit (Zymo). DNA libraries were prepared using Swift Accel-NGS® D Methyl-Seq DNA Library Kit according to the manufacturer's protocol. The libraries were purified by the AMPureXP Beads followed by QC using Qubit method, and the purified DNA was captured on an Illumina flow cell for cluster generation. Libraries were sequenced on the NovaSeq-S2 platform following the manufacturer's protocols. Sequencing data were aligned to the Hg38 genome using BSMAP. Adapter were trimmed from FASTQ sequences (trimglore) and mapped to the hg38 genome using the BSMAP v. 2.74 software. CpGs were extracted by the methratio.py in the BSMAP package. Differential analysis of CpG methylation among the datasets was determined with a Bayesian hierarchical model to detect regional methylation differences with at least three CpG site. Differentially methylated regions (DMRs) were identified using Bioconductor package DSS and custom R scripts with a threshold of 30% change in methylation ratio and P-value <0.01 with at least 10 reads per CpG site as a cutoff."}, "[3]": {"system": "LCMV-specific CD8+ T cells", "format": "in vivo, C57BL/6 mice", "settings": "treatment followed by anti-PD-L1"}, "Dysf. CD8+ T cells": {"system": "Dysf. CD8+ T cells", "assay": "reprogramming treatment of Dysf. (chronic TCR plus TGFβ1) human CD8+ T cells", "format": "cell-based", "description": "On day 7, viable CD8+ T cells were FACS-purified using the Sony MA900 cell sorter. Purified CD8+ T cells were then continuously stimulated in plates coated with anti-CD3 only (5 ug/ml). Media was replenished every 2-3 days, and cells were incubated at 37 C and 5% CO2 throughout the duration of the experiment. Human TGFβ1 (5 ng/ml, Peprotech) was added to the media starting on day 7. Treatment with RepSox (25 μM) and SB4 (10 μM) (MedChemExpress LLC) or vehicle control (DMSO, ThermoFisher) were added to the media starting on day 14 or 21. Vitamin C (100 μM, MedChemExpress LLC) was added to the media starting on day 21. For the acute TCR stimulation condition, anti-CD3 was no longer added to the media starting on day 7. For recovery experiments in FIG. 16 and FIGS. 22 and 26, CD8+ T cells were rested from TCR stimulation and TGFβ1 starting on day 28 for 7-14 days in T cell media containing recombinant human IL-15 only (10 ng/ml).\n(§1) On days 7, 14, 21, and 28 (and day 35 and 42 for recovery experiments), human CBMCs were stimulated with PMA/Ionomycin (Cell Stimulation Cocktail plus protein transport inhibitors, eBioscience) for 3 hours at 37° C., 5% CO2. Incubation was followed immediately by antibody intracellular staining for flow cytometry.\nHuman CBMCs from ex vivo stimulation experiments (acute or chronic TCR, and chronic TCR+TGFβ1) were labeled with 5(6)-Carboxyfluorescein diacetate N-succinimidyl ester (CFSE) (1 μM, Sigma) by staining in PBS for 7 minutes at room temperature, followed by quenching with 20% FBS. Proliferation was tracked on days 35 and 42 by assessing CFSE fluorescence via flow cytometry. Each peak of CFSE fluorescence signal represents one cell division cycle."}, "B16-F10-LCMV-GP tumor": {"system": "B16-F10-LCMV-GP tumor", "format": "in vivo, C57BL/6 mice", "settings": "therapy initiated after tumor development, i.p. every 2 days, through day 17"}, "P14 CD8 T cells": {"system": "P14 CD8 T cells", "assay": "in-vitro co-culture of P14 CD8 T cells with CT2A-gp33 tumor cells (Example 1)", "format": "cell-based, mouse", "source_text": "To study their epigenetic (re)programming, we developed a novel in-vitro model of CD8 T cell exhaustion. First, we optimized conditions for in-vitro co-culture of gp33-expressing murine brain tumor cells (CT2A-gp33) and TCR transgenic gp33-specific CD8 T cells (P14 cells). We were able to enforce differentiation of anti-tumor CD8 T cells under their persistent TCR stimulation by repeated exposure to the tumor antigen and tumor-derived factors, such as TGFβ1. […] However, with prolonged exposure to the tumor antigen, the effector CD8 T cells progressively lose cytokine production and tumor killing activity (FIGS. 8A, 8B, and 8C).\nTo assess the impact of TGFβ1 signaling on the progression of CD8 T cells toward dysfunction, we treated co-cultures with TGFβ1 or RepSox (also known as E-616452) (2-(3-(6-Methylpyridine-2-yl)-1H-pyrazol-4-yl)-1,5-naphthyridine) as shown in the formula: […]\nRepSox is a potent selective inhibitor of the TGFβ type 1 receptor (ALK5)—for 11 days after effector differentiation was complete (day 6).\nWe also examined the impact of BMP-2/4 signaling on RepSox-treated P14 CD8 T cells. […] Taken together, our findings indicate that TGFβ1-signaling not only accelerates the development of T cell dysfunction, but also maintains silencing of lymphoid homing markers on CD8 T cells. Importantly, our findings support the feasibility of using this novel in-vitro model as a tractable tool that can guide our in-vivo work by providing first-line mechanistic studies."}, "human CD8+ T cells [4]": {"system": "human CD8+ T cells", "assay": "BMP4 agonist treatment of human CD8+ T cells under chronic strong TCR stimulation", "format": "cell-based", "source_text": "To determine whether activating the SMAD1/5-dependent pathway attenuates a progression of chronically stimulated T cells to dysfunction, we augmented SMAD1/5-signaling using SB4 (2-[[(4-Bromophenyl)methyl]thio]benzoxazole), as shown in the formula: […]\nSB4 is a selective small molecule BMP4 agonist (BMP4a) that stabilizes SMAD1/5 phosphorylation—in human CD8+ T cells under chronic strong TCR stimulation (FIG. 15a). […] CD39, CD103, and CD101 (FIG. 15e-i). Importantly. […] Taken together, these findings reveal a novel role for BMP4 signals in reversing exhaustion features and enhancing the survival of chronically stimulated CD8+ T cells.\nFor “Weak TCR” stimulation, 30 ng/ml of purified monoclonal anti-human CD3 (clone: OKT3; BioLegend) was continuously added onto the seeded CBMCs to provide TCR stimulation plus natural costimulation via CD80/CD86 on Fc-expressing CBMCs that survive in the first few days. For “Strong TCR” stimulation setting, flat-bottom plates were coated with purified monoclonal anti-human CD3 (5 ug/ml) and anti-human CD28 (1 ug/ml) (clone: CD28.2; BioLegend) at 4° C. overnight, then CMBCs were isolated and seeded in complete T cell medium as described above on day 0. On day 7, viable CD8+ T cells were FACS-purified using the Sony MA900 cell sorter. Purified CD8+ T cells were then continuously stimulated in plates coated with anti-CD3 only (5 ug/ml). Media was replenished every 2-3 days, and cells were incubated at 37 C and 5% CO2 throughout the duration of the experiment. Human TGFβ1 (5 ng/ml, Peprotech) was added to the media starting on day 7. […] Vitamin C (100 μM, MedChemExpress LLC) was added to the media starting on day 21. For the acute TCR stimulation condition, anti-CD3 was no longer added to the media starting on day 7. For recovery experiments in FIG. 16 and FIGS. 22 and 26, CD8+ T cells were rested from TCR stimulation and TGFβ1 starting on day 28 for 7-14 days in T cell media containing recombinant human IL-15 only (10 ng/ml).\nas §1"}, "[5]": {"settings": "monotherapy, in the absence of TGFβ R1 blocker"}}, "data": [{"smiles": "Cc1cccc(-c2n[nH]cc2-c2ccc3ncccc3n2)n1", "note": "[RepSox, 2-(3-(6-Methylpyridine-2-yl)-1H-pyrazol-4-yl)-1,5-naphthyridine]", "values": [{"measurement": "expression of effector function-related and memory-related genes", "setting": "human CD8+ T cells [1]; TGFBR1 blockade alone, Dysf. CD8+ T cells, day 28", "result": "restored substantial expression levels"}, {"measurement": "ACVR1 and ACVR2A expression", "setting": "human CD8+ T cells [1]; normalized RNA levels, chronic stimulation", "result": "increased expression"}, {"measurement": "DNA methylation patterns in Dysf. CD8+ T cells", "setting": "human CD8+ T cells [2]; RepSox alone, day 28", "result": "induced distinct methylation patterns"}, {"measurement": "dysfunctional CD8+ T cell responses during anti-PD-L1 treatment", "setting": "[3]", "result": "did not improve"}, {"measurement": "effector molecules (IFNγ, TNFα, CD107a, T-bet)", "setting": "Dysf. CD8+ T cells; RepSox alone, day 28", "result": "restored"}, {"measurement": "surface markers associated with terminal dysfunction (CD101, PD-1, LAG3)", "setting": "Dysf. CD8+ T cells; RepSox alone, day 28", "result": "downregulated"}, {"measurement": "effector cytokine production", "setting": "Dysf. CD8+ T cells; sorted most dysfunctional subset (CD107a low CD11a low), RepSox 2 weeks", "result": "significantly recovered"}, {"measurement": "tumor control", "setting": "B16-F10-LCMV-GP tumor", "result": "modest tumor control"}, {"measurement": "CD62L (L-selectin) expression", "setting": "P14 CD8 T cells; P14 CD8 T cells", "result": "restored"}, {"measurement": "levels of PD-1", "setting": "P14 CD8 T cells; P14 CD8 T cells", "result": "maintained high levels"}, {"measurement": "tumor killing activity", "setting": "P14 CD8 T cells; persistently stimulated P14 cells, treatment from day 6", "result": "preserved"}, {"measurement": "effector function (expression of IFNγ, T-bet and Gzmb)", "setting": "P14 CD8 T cells; relative to Day 6-effector CD8 T cells", "result": "boosted the effector function"}]}, {"smiles": "Brc1ccc(CSc2nc3ccccc3o2)cc1", "note": "[SB4, 2-[[(4-Bromophenyl)methyl]thio]benzoxazole]", "values": [{"measurement": "expression of genes regulating T cell co-stimulation, chemotaxis and stemness (CD28, FOSB, FCGR3A, CXCL8, POU2F2)", "setting": "human CD8+ T cells [1]; Reprog.II versus Reprog.I", "result": "re-activated expression"}, {"measurement": "expression of exhaustion-associated molecules (PD-1, LAG3, CD39, CD103, CD101)", "setting": "human CD8+ T cells [4]; day 21", "result": "reducing the expression"}, {"measurement": "numbers of persistently stimulated CD8+ T cells", "setting": "human CD8+ T cells [4]; day 21", "result": "rescued significantly higher numbers"}, {"measurement": "proliferation activity (Ki67)", "setting": "human CD8+ T cells [4]; day 21", "result": "without increasing"}, {"measurement": "polyfunctionality", "setting": "human CD8+ T cells [4]; day 21, treatment day 7-21, after PMA/Ionomycin", "result": "significantly increased"}, {"measurement": "DNA methylation patterns in Dysf. CD8+ T cells", "setting": "human CD8+ T cells [2]; combined with RepSox", "result": "more pronounced"}, {"measurement": "dysfunctional CD8+ T cell responses during anti-PD-L1 treatment", "setting": "[3]", "result": "did not improve"}, {"measurement": "expression levels of terminal dysfunction molecules", "setting": "Dysf. CD8+ T cells; in RepSox-treated Dysf. CD8+ T cells", "result": "further reducing"}, {"measurement": "effector function of Dysf. CD8+ T cells", "setting": "Dysf. CD8+ T cells; [5]", "result": "not sufficient to restore"}, {"measurement": "expression levels of dysfunction-related molecules (PD-1, LAG3, CD101, CD103)", "setting": "Dysf. CD8+ T cells; [5]", "result": "significantly reduced"}, {"measurement": "effector cytokine production", "setting": "Dysf. CD8+ T cells; sorted most dysfunctional subset, added to RepSox", "result": "further enhanced"}, {"measurement": "tumor control", "setting": "B16-F10-LCMV-GP tumor", "result": "modest tumor control"}]}]}
